Source: paper PMC9014412 (Journal of medicinal chemistry, 2022)

What was measured:
HCT116 cells [1] = assay: CellTiter-Glo 2.0 cell viability assay; assay type: cell-based, human; conditions: for EC50: Homo sapiens, HCT-116, 48 h
Method: CellTiter-Glo 2.0 Reagent (Promega UK Ltd, G9242) was equilibrated to room temperature and added to the wells in a ratio of 1 volume reagent:5 volumes medium. Background luminescence was determined using medium alone plus reagent. The plates were shaken on an orbital shaker for 2 min to induce cell lysis and then incubated in the dark at room temperature for 10 min to stabilize the luminescent signal. Luminescence was captured on a CLARIOstar plate reader (BMG Labtech Ltd, UK) at 22 °C to give relative luminescence units and analyzed using BMG Labtech software. EC50 values were calculated by nonlinear regression (Hill plot) and log (inhibitor) versus response—variable slopes (four parameters) using GraphPad Prism 9 software. Each compound dose response was repeated as four independent biological replicates (n = 4).

SIN3A = SIN3A protein levels by western blotting; assay type: cell-based, human; conditions: HCT116 cells
Method: (§1) Supporting Information: Biology
(§2) Representative blots of two independent biological replicates.
Figure S6. Representative Western blot of HDAC1/2/3 levels after 24 hours and 48 hours with 1
(JPS004), 7 (JPS014) and 9 (JPS016), and bar graph representation of HDAC1-3, LSD1 and Sin3a
protein levels after 24 hours and 48 hours as the average of three independent biological replicates.
(also on this page, place not known: HDAC1 24hHDAC2 24hHDAC3 24hHDAC1 48hHDAC2 48hHDAC3 %Protein Levels Remaining (Relative to DMSO) %Protein Levels Remaining (Relative to DMSO))

H3K56ac = assay: Histone H3 Lys 56 acetylation (H3K56ac) western blotting; assay type: cell-based, human; conditions: HCT116 cells, 24 h, screen at 0.1, 1, 10 μM; relative to DMSO, CI-994 and 1 at 10 μM
Description: as §1, §2

HCT116 cells [2] = assay: Apoptosis flow cytometry assay (sub-G1 population); assay type: cell-based, human; conditions: 10 μM, after 24 h
Method: HCT116 cells were seeded (5 × 10^5 cells/plate) into 6 cm tissue culture plates for 24 h and then treated with 10 μM compounds (with 0.1% DMSO vehicle) or 0.1% DMSO control in fresh medium (5 mL total). The cells were then exposed to the compounds (10 μM) for 24 or 48 h. To harvest the cells, the medium was transferred from each sample plate to 15 mL centrifuge tubes. Each well was washed with 1 mL of phosphate-buffered saline (PBS) and the PBS was transferred to the corresponding 15 mL centrifuge tube. The plates were trypsinized, 2 mL of medium was added, and the cells and medium were transferred to the corresponding 15 mL centrifuge tubes. The harvested cells were pelleted by centrifugation (200g, 5 min, 4 °C), washed with 1 mL PBS, and then pelleted again by centrifugation (200g, 5 min, 4 °C). The supernatant was discarded, and the pellets resuspended in 1 mL of 70% ethanol (ice-cold) to fix the cells. Samples were stored at 4 °C and analyzed within two weeks. PBS (1 mL) was added to each sample tube containing cells fixed in 70% ethanol. The cells were pelleted by centrifugation (200g, 5 min, 4 °C), and the PBS wash was repeated. The supernatant was discarded, and the pellet was resuspended in 50 μL of RNase A (1 μg/mL, Thermo Scientific, EN0531) and left at room temperature for 10 min to digest contaminating RNA. A total of 500 μL of PI stain (50 μg/mL, Invitrogen, P3566) was added to each tube, and the tubes were incubated in the dark, at room temperature, for 30 min. Results were acquired on a BD FACSCanto II flow cytometer and analyzed using BD FACSdiva software. Sub-G1 population was calculated as a percentage of total cell population. Two independent biological replicates were performed.

HDAC1 = HDAC1 (Homo sapiens, UniProt Q13547); assay: HDAC1 degradation by quantitative western blotting in HCT116 cells; conditions: HCT116 cells, 24 h, 0.1, 1 and 10 μM; compared with 1 at 10 μM
Method: (§3) Initially, each PROTAC was tested at 0.1, 1, and 10 μM in HCT116 cells for 24 h; then, cell extracts were prepared and evaluated for HDAC1/2 and 3 degradation by quantitative western blotting.
(§4) This cell line was incubated at 37 °C with 5% CO2.
(§5) HCT116 cells were seeded into 6-well plates (4 × 10^5 cells/well for 24 h, 2 × 10^5 cells/well for 48 h) for 24 h and then treated with DMSO or compounds at the indicated concentrations in fresh medium (5 mL total). After desired treatment time, the cells were harvested and then lysed in lysis buffer (50 mM Tris-HCl, 150 mM NaCl, 0.5% NP-40, 0.5% Triton X-100) supplemented with a protease inhibitor (Sigma, P8340). The suspension was incubated on ice for 30 min and centrifuged (18,000 rcf, 15 min, 4 °C); then, the supernatant was collected, and protein concentrations were quantified via Bradford Assay using Protein Assay Dye Reagent Concentrate (BIO-RAD). […] PageRuler Plus Prestained Ladder was used for size standards. After gel electrophoresis at 140 V for 90 min, the separated proteins were transferred onto a nitrocellulose membrane at 30 V for 60 min. The membranes were probed with primary antibodies (see the Supporting Information) for 60−90 min. Blots were developed with complimentary IRDye-conjugated secondary antibodies, and the bands were visualized using an Odyssey infrared imaging system. Image processing and band intensity quantification were performed using Image Studio Lite.

HDAC2 = HDAC2 (Homo sapiens, UniProt Q92769); assay: HDAC2 degradation by quantitative western blotting in HCT116 cells; conditions: for HDAC2 degradation in initial screen (in words): HCT116 cells, 24 h, 0.1, 1 and 10 μM, compared with 1 at 10 μM
Method: as §3, §4, §5

HDAC3 = HDAC3 (Homo sapiens, UniProt O15379); assay: HDAC3 degradation by quantitative western blotting in HCT116 cells; conditions: HCT116 cells, 24 h, 0.1, 1 and 10 μM; compared with 1 at 10 μM
Method: as §3, §4, §5

Solubility observations = assay type: physicochemical; conditions: aqueous

Sequence of HDAC2 (Q92769 whole entry): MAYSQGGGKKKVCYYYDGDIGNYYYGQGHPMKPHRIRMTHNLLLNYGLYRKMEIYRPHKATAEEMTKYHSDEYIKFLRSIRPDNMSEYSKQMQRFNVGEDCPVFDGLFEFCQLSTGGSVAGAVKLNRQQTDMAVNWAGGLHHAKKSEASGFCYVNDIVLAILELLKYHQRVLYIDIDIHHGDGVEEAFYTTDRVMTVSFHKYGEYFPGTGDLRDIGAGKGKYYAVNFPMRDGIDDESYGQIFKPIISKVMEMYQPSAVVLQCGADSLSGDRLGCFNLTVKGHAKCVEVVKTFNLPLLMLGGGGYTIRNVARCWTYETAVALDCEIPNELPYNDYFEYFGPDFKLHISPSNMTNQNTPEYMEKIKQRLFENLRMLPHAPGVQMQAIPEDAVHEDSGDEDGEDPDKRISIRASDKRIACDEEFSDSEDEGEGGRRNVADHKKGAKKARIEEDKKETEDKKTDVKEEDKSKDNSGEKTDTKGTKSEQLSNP
Sequence of HDAC1 (Q13547 whole entry): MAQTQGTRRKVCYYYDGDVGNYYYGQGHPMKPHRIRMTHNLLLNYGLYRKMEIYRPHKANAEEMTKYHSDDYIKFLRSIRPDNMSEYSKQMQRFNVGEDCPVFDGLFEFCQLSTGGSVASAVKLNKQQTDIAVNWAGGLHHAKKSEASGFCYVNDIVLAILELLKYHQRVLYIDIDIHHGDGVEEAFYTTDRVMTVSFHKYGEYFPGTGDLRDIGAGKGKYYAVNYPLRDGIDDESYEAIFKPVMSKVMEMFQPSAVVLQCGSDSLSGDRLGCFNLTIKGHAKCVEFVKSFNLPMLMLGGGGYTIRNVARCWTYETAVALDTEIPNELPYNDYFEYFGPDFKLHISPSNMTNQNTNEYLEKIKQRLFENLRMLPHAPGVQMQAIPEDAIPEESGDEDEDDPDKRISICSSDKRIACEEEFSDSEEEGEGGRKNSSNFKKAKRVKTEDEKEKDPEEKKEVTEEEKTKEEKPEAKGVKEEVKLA
Sequence of HDAC3 (O15379 whole entry): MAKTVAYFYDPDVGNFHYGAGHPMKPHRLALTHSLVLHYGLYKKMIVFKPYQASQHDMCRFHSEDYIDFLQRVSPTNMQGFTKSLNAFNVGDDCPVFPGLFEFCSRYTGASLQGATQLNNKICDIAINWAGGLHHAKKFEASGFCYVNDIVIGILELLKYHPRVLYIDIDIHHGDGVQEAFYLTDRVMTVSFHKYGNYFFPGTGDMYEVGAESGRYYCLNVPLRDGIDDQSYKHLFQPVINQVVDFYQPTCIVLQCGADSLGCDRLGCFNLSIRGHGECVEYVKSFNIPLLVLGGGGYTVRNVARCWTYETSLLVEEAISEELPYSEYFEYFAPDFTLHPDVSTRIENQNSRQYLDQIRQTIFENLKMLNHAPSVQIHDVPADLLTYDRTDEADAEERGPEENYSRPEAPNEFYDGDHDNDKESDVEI
Sequence of HDAC3 (Q9Y618 389-480 partner limits assumed): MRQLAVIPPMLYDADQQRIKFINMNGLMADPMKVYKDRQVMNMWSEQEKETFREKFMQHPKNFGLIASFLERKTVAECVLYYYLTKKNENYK

Structure (SMILES)	H3K56ac levels (in words) (H3K56ac)	HDAC1 degradation in initial screen (in words) (HDAC1)	HDAC2 degradation in initial screen (in words) (HDAC2)	also measured
Cc1ncsc1-c1ccc(CNC(=O)[C@@H]2C[C@@H](O)CN2C(=O)[C@@H](NC(=O)CCCCCCCCCCC(=O)Nc2ccc(C(=O)Nc3ccccc3N)cc2)C(C)(C)C)cc1 [Compound 1, N1-(4-((2-Aminophenyl)carbamoyl)phenyl)-N12-((S)-1-((2S,4R)-4-hydroxy-2-((4-(4-methylthiazol-5-yl)benzyl)carbamoyl)pyrrolidin-1-yl)-3,3-dimethyl-1-oxobutan-2-yl)dodecanediamide]				EC50 (HCT116 cells [1]; 48 h): 4.3 ± 0.5 µM
Cc1ncsc1-c1ccc(CNC(=O)[C@@H]2C[C@@H](O)CN2C(=O)[C@@H](NC(=O)CCCCCCCCOCC(=O)Nc2ccc(C(=O)Nc3ccccc3N)cc2)C(C)(C)C)cc1 [Compound 7, (2S,4R)-1-((S)-2-(9-(2-((4-((2-Aminophenyl)carbamoyl)phenyl)-amino)-2-oxoethoxy)nonanamido)-3,3-dimethylbutanoyl)-4-hydroxy-N-(4-(4-methylthiazol-5-yl)benzyl)pyrrolidine-2-carboxamide]	increased H3K56ac to comparable or greater levels than CI-994 and 1			SIN3A levels (abundance) (SIN3A; 10 μM, after 24 h): 50 % abundance; Percentage of cells in sub-G1 phase (in words) (HCT116 cells [2]): highest percentage of cells in the sub-G1 phase; EC50 (HCT116 cells [1]): 7.3 ± 0.5 µM
Cc1ncsc1-c1ccc(CNC(=O)[C@@H]2C[C@@H](O)CN2C(=O)[C@@H](NC(=O)COCCOCC(=O)Nc2ccc(C(=O)Nc3ccccc3N)cc2)C(C)(C)C)cc1 [Compound 10, (2S,4R)-1-((S)-2-(2-(2-(2-((4-((2-Aminophenyl)carbamoyl)-phenyl)amino)-2-oxoethoxy)ethoxy)acetamido)-3,3-dimethylbutanoyl)-4-hydroxy-N-(4-(4-methylthiazol-5-yl)benzyl)pyrrolidine-2-carboxamide]	did not increase H3K56ac levels compared to the dimethyl sulfoxide (DMSO) control	almost complete loss of HDAC1/2 degradation	almost complete loss of HDAC1/2 degradation	HDAC3 degradation in initial screen (in words) (HDAC3): generally compromised
Cc1ncsc1-c1ccc(CNC(=O)[C@@H]2C[C@@H](O)CN2C(=O)[C@@H](NC(=O)C2(F)CC2)C(C)(C)C)c(OCCCCCCCCCCCC(=O)Nc2ccc(C(=O)Nc3ccccc3N)cc2)c1 [Compound 22, (2S,4R)-N-(2-((12-((4-((2-Aminophenyl)carbamoyl)phenyl)-amino)-12-oxododecyl)oxy)-4-(4-methylthiazol-5-yl)benzyl)-1-((S)-2-(1-fluorocyclopropane-1-carboxamido)-3,3-dimethylbutanoyl)-4-hydroxypyrrolidine-2-carboxamide]	did not alter H3K56ac levels		reduction in HDAC1 and HDAC2 degradation compared to 1	Effect on cell viability (in words) (HCT116 cells [1]; CellTiter-Glo and flow cytometry): little effects on cell viability; Dmax (HDAC2; HCT-116, read-out: Dmax HDAC2): 18%
CC(=O)Nc1ccc(C(=O)Nc2ccccc2N)cc1 [CI-994, reference compound]				SIN3A levels (in words) (SIN3A; especially after 48 h): significantly reduced
Cc1ncsc1-c1ccc(CNC(=O)[C@@H]2C[C@@H](O)CN2C(=O)[C@@H](NC(=O)CCCCCCCCCCCCC(=O)Nc2ccc(C(=O)Nc3ccccc3N)cc2)C(C)(C)C)cc1 [Compound 5, N1-(4-((2-Aminophenyl)carbamoyl)phenyl)-N14-((S)-1-((2S,4R)-4-hydroxy-2-((4-(4-methylthiazol-5-yl)benzyl)carbamoyl)-pyrrolidin-1-yl)-3,3-dimethyl-1-oxobutan-2-yl)tetradecanediamide]	only a modest increase in H3K56ac compared to the shorter linkers	comparable HDAC1 and HDAC2 degradation to the shorter linkers	comparable HDAC1 and HDAC2 degradation to the shorter linkers	Solubility (in words) (Solubility observations): solubility issues
Cc1ncsc1-c1ccc(CNC(=O)[C@@H]2C[C@@H](O)CN2C(=O)[C@@H](NC(=O)COCCOCCOCC(=O)Nc2ccc(C(=O)Nc3ccccc3N)cc2)C(C)(C)C)cc1 [Compound 11, (2S,4R)-1-((S)-14-((4-((2-Aminophenyl)carbamoyl)phenyl)-amino)-2-(tert-butyl)-4,14-dioxo-6,9,12-trioxa-3-azatetradecanoyl)-4-hydroxy-N-(4-(4-methylthiazol-5-yl)benzyl)pyrrolidine-2-carboxamide]	did not increase H3K56ac levels compared to the dimethyl sulfoxide (DMSO) control	almost complete loss of HDAC1/2 degradation	almost complete loss of HDAC1/2 degradation	HDAC3 degradation in initial screen (in words) (HDAC3): generally compromised
